# Measurements taken from PubChem BioAssay (NCI).
#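 How tested: cells in 96-well plates exposed to compound for 48 hours at five concentrations. GI50 marks 50% less growth. TGI: total growth inhibition.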
# Key:
# Assay in all cases: NCI anticancer screen, dose series, 48 h
# [1] = system: SW-620 colon
# [2] = system: SR leukemia
# [3] = system: SN12C renal
# [4] = system: ACHN renal
# [5] = system: NCI-H522 lung
# [6] = system: PC-3 prostate
# [7] = system: SK-OV-3 ovarian
# [8] = system: OVCAR-5 ovarian
# [9] = system: HOP-62 NSCLC
# [10] = system: OVCAR-3 ovarian
structure (smiles),measurement,setting,value
O=C(CCN1CCCCC1)N1CCc2c([nH]c3ccccc23)C1c1cccnc1 (configuration not stated),TGI,[1],> 100 µM
same,TGI,[2],> 100 µM
same,TGI,[3],> 100 µM
same,TGI,[4],> 100 µM
same,TGI,[5],79.7 µM
same,TGI,[6],> 100 µM
same,TGI,[7],> 100 µM
same,TGI,[8],> 92.9 µM
same,TGI,[9],> 100 µM
same,TGI,[10],> 100 µM
COC(=O)c1oc2c(C(=O)/C=C/c3ccc(OC)cc3)c(OCCN(C)C)ccc2c1C,GI50,[1],2.4 µM
same,TGI,[1],7.43 µM
same,GI50,[2],2.37 µM
same,TGI,[2],7.38 µM
same,GI50,[3],5.31 µM
same,TGI,[3],20.4 µM
same,GI50,[4],5.9 µM
same,TGI,[4],19.5 µM
same,GI50,[5],5.39 µM
same,TGI,[5],20.2 µM
same,GI50,[6],8.43 µM
same,TGI,[6],21.7 µM
same,GI50,[7],5.14 µM
same,TGI,[7],17.8 µM
same,GI50,[8],15.8 µM
same,TGI,[8],32.9 µM
same,GI50,[9],20.5 µM
same,TGI,[9],38.7 µM
same,GI50,[10],7.19 µM
same,TGI,[10],21.3 µM
CN1CCN(Cc2ccc(NC(=O)c3cncc(C#Cc4cnc(N)c5cccnc45)c3)cc2C(F)(F)F)CC1,GI50,[1],0.262 µM
same,TGI,[1],2.9 µM
same,GI50,[2],0.293 µM
same,TGI,[2],> 50 µM
same,GI50,[3],0.311 µM
same,TGI,[3],> 50 µM
same,GI50,[5],0.29 µM
same,TGI,[5],> 50 µM
same,GI50,[6],0.665 µM
same,TGI,[6],> 50 µM
same,GI50,[7],0.203 µM
same,TGI,[7],> 50 µM
same,GI50,[8],0.537 µM
same,TGI,[8],> 50 µM
same,GI50,[9],0.498 µM
same,TGI,[9],> 19.1 µM
same,GI50,[10],0.589 µM
same,TGI,[10],> 50 µM
CCOC(=O)C(C#N)C1=CC(=O)C(=O)c2ccc(O)cc21 (configuration not stated),TGI,[1],> 100 µM
same,TGI,[2],> 100 µM
same,TGI,[3],> 100 µM
same,TGI,[4],> 100 µM
same,TGI,[5],> 100 µM
same,TGI,[6],> 100 µM
same,TGI,[7],> 100 µM
same,TGI,[8],> 100 µM
same,TGI,[9],> 100 µM
same,TGI,[10],> 100 µM
O=C(O)C1[O][Sb][O]C(C(=O)O)C1O (configuration not stated),GI50,[1],> 100 µM
same,TGI,[1],> 100 µM
same,GI50,[2],> 100 µM
same,TGI,[2],> 100 µM
same,GI50,[3],> 100 µM
same,TGI,[3],> 100 µM
same,GI50,[4],> 100 µM
same,TGI,[4],> 100 µM
same,GI50,[5],> 100 µM
same,TGI,[5],> 100 µM
same,GI50,[6],> 100 µM
same,TGI,[6],> 100 µM
same,GI50,[8],> 100 µM
same,TGI,[8],> 100 µM
same,GI50,[9],> 100 µM
same,TGI,[9],> 100 µM
same,GI50,[10],> 100 µM
same,TGI,[10],> 100 µM
CSc1nc2c(c(=O)n1C)CN(C1CCCCC1)C(=O)C(c1ccccc1)N2 (configuration not stated),GI50,[1],38.5 µM
same,TGI,[1],> 100 µM
same,GI50,[2],6.38 µM
same,TGI,[2],> 100 µM
same,GI50,[3],36 µM
same,TGI,[3],> 100 µM
same,GI50,[4],12.1 µM
same,TGI,[4],> 100 µM
same,GI50,[5],11.9 µM
same,TGI,[5],> 100 µM
same,GI50,[6],21.7 µM
same,TGI,[6],> 100 µM
same,GI50,[7],76.8 µM
same,TGI,[7],> 100 µM
same,GI50,[8],> 100 µM
same,TGI,[8],> 100 µM
same,GI50,[9],> 100 µM
same,TGI,[9],> 100 µM
same,GI50,[10],20.1 µM
same,TGI,[10],82 µM
CC1(C)CCCC(C)(C2CCC3(C)C2C(O)CC2C4(C)CCC(O)C(C)(C)C4CCC23C)O1 (configuration not stated),TGI,[1],> 100 µM
same,TGI,[2],> 100 µM
same,TGI,[3],> 100 µM
same,TGI,[4],> 100 µM
same,TGI,[5],> 100 µM
same,TGI,[6],> 100 µM
same,TGI,[7],> 100 µM
same,TGI,[8],> 100 µM
CC(C)COc1nc2c(c(=O)n(C)c(=O)n2C)n1C,GI50,[1],> 100 µM
same,TGI,[1],> 100 µM
same,GI50,[2],> 100 µM
same,TGI,[2],> 100 µM
same,GI50,[3],> 100 µM
same,TGI,[3],> 100 µM
same,GI50,[4],> 100 µM
same,TGI,[4],> 100 µM
same,GI50,[6],> 100 µM
same,TGI,[6],> 100 µM
same,GI50,[7],> 100 µM
same,TGI,[7],> 100 µM
same,GI50,[8],> 100 µM
same,TGI,[8],> 100 µM
same,GI50,[9],> 100 µM
same,TGI,[9],> 100 µM
same,GI50,[10],> 100 µM
same,TGI,[10],> 100 µM
Nc1nc(/C=C\c2ccccc2)nc(N2CCN(c3ccccc3)CC2)n1,GI50,[1],36.3 µM
same,TGI,[1],> 100 µM
same,GI50,[2],35.8 µM
same,TGI,[2],> 100 µM
same,GI50,[3],18.2 µM
same,TGI,[3],38.6 µM
same,GI50,[4],29.2 µM
same,TGI,[4],> 100 µM
same,GI50,[5],28.2 µM
same,TGI,[5],84.9 µM
same,GI50,[6],27.9 µM
same,TGI,[6],> 100 µM
same,GI50,[8],58.7 µM
same,TGI,[8],> 100 µM
same,GI50,[9],23.9 µM
same,TGI,[9],86.3 µM
same,GI50,[10],28.2 µM
same,TGI,[10],57.5 µM
O=C(c1ccc(Cl)cc1)C(O)c1ccc(Cl)cc1 (configuration not stated),TGI,[1],> 100 µM
same,TGI,[2],> 100 µM
same,TGI,[3],> 100 µM
same,TGI,[4],> 100 µM
same,TGI,[5],> 100 µM
same,TGI,[6],> 100 µM
same,TGI,[8],> 100 µM
same,TGI,[9],> 100 µM
same,TGI,[10],> 100 µM
N#Cc1cnc(Nc2cc(NC[C@H]3CNCCO3)c(C(F)(F)F)cn2)cn1,GI50,[1],18.1 µM
same,TGI,[1],73.8 µM
same,GI50,[2],0.64 µM
same,TGI,[2],24 µM
same,GI50,[3],17.7 µM
same,TGI,[3],83 µM
same,GI50,[5],13.1 µM
same,TGI,[5],34.9 µM
same,GI50,[6],21.1 µM
same,TGI,[6],87.5 µM
same,GI50,[7],3.62 µM
same,TGI,[7],38.9 µM
same,GI50,[8],9.37 µM
same,TGI,[8],67.1 µM
same,GI50,[9],6.54 µM
same,TGI,[9],36.8 µM
same,GI50,[10],13.3 µM
same,TGI,[10],48.3 µM
